# Test results as given in patent US12102685B2, “Immodulator peptides covalently modified with small molecules” (priority 2020, dated 2024).
# Marks after values point to notes of the source that are not given here. Square brackets hold non-standard residues; d marks the D form. Ends that are not written are not given here. Peptide text beside a SMILES is read from it. * marks the point of attachment. RG108 = O=C1c2ccccc2C(=O)N1[C@@H](Cc1c[nH]c2ccccc12)C(=O)*
# What was measured:
# [1] = Iron binding of separately labeled peptides (x2E e); details: each peptide labeled separately; IM3 = 100; ferric iron
# Method: (§1) Experiments were conducted by the procedure described above. Ferric iron-charged NTA-coated 96-well plates were used as described. 1 ug/well immodulator peptide complexed to Alexa-488-labeled streptavidin in PBS buffer was added (60 min at room temperature). The plate was washed and counted in a standard fluorometer (excitation/emission: 485/525 nm). The results (fluorescence) show improved iron-binding by the three peptides extended C-terminally by the AVD, (dA)VD, and FVS tripeptides. **p<0.01 vs IM3 control IM3: 200±29; IM4: 45±37**; IM5: 130±77; IM3AVD: 434±29**; IM3dAVD: 418±28**; IM3FVS: 371±33** • (c) Competition assay. The same procedure was used as the preceding experiment, except that 375 ng/well labeled IM3 peptide was used, plus 10× of the indicated unlabeled peptide. ‘No competing peptide’ control value was set to 100. *p<0.05 vs “no peptide” control Competing Peptide/Fluorescence • None: 100±38; IM4: 125±26; IM3: 63±27*; IM5: 40±14*; IM3AVD: 10±28* • (d) Competition assay. The same procedure was used as the preceding experiment, except that labeled IM3AVD peptide was used. **p<0.01 vs “no competing peptide” control • None: 100±9; IM4: 144±44; IM3: 35±16**; IM5: 30±19**; IM3AVD: 9±19** • (e) The same procedure was used as the preceding experiment, except that each peptide was labeled with Alexa-488-labeled streptavidin in PBS buffer and used separately. Binding to IM3 was set to =100. *p<0.05, **p<0.01 vs IM3 control. (Labeled Peptide/Fluorescence) IM1: 1.8±0.4**; IM2: 3.0±1.8**; IM3: 100.0±16.8; IM4: 7.2±1.7*; IM5: 86.7±6.4; IM6: 85.9±14.9; IM3AVD:137.7±11.8*; IM3dAVD:147.4±22.9*; IM3FVS: 101.5±10.5.
# [2] = Strength of binding to iron, plate assay (x2E b); details: 1 ug/well peptide complexed to Alexa-488-streptavidin; ferric iron
# Method: Immodulator peptides were extended C-terminally by three amino acids, to include a valine residue that is highly conserved in the “thyroglobulin type 1 motif”. The reasoning behind this attempt is that a longer conserved sequence might lead to a tighter fold overall, which might in turn result in increased metal-binding avidity. • (b) Strength of binding to iron was evaluated by plate assay.
# as §1
# [3] = tested on: COL1 in HFF-1 dermal fibroblasts; experiment: Collagen-1 ELISA in HFF-1 dermal fibroblasts (x11A); type: cell-based; details: peptide 2 uM, 72 hour; control (buffer) = 100
# Method: (§2) Immune modulation functions of immodulator peptides have potential untility in the field of cosmetics. HFF-1 cell line was obtained from American Type Culture Collection (ATCC). Cells were grown in a T-75 flask in DMEM Medium containing 10% fetal bovine serum and penicillin-streptomycin at 37° C. in a humidified, 5% CO2 incubator. Cells ([…], 2,000 cells/well) were plated in a 96-well plate and incubated overnight at 37° C. in a humidified, 5% CO2 incubator. Next day, […] of compounds were added (quadruplicate wells). After 72 hour incubation with the compound, supernatants were collected for Collagen-1 ELISA assay and cell viability was measured in a luminometer after the addition of […] CellTiterGlo reagent (Promega Inc, Madison, WI) as recommended by the manufacturer.
# Collagen stimulating activity of immodulator peptides in HFF-1 dermal fibroblasts. Peptides were added to cells at 2 uM. COL1 immunoreactivity was measured in the supernatants of cultured cells by ELISA using a rabbit monoclonal anti-COL1 primary antibody (Abcam, Cambridge, MA). Control (buffer) value of immunoreactivity was set to 100.
# [4] = tested on: STING; experiment: THP1-Dual monocyte reporter, STING readout (x4A); type: cell-based; details: no peptide
# Method: (§3) Immune modulation functions of immodulator peptides were measured using the monocyte reporter cell line THP1-Dual (Invivogen, San Diego, CA), which provides convenient readouts for STING and NF-kappa-B pathways. Optionally, succinic acid, cytokine and chemokine production were also measured. THP1-Dual cell line was obtained from Invivogen. Cells were grown in a T-75 flask in RPMI Medium containing 20% fetal bovine serum, blasticidin ([…]), zeocin ([…]) and penicillin-streptomycin at 37° C. in a humidified, 5% CO2 incubator. Cells ([…], 8,000 cells/well) were plated in a 96-well plate and incubated overnight at 37 °C in a humidified, 5% CO2 incubator. Next day, […] of compounds were added (quadruplicate wells). After 24 hour incubation with the compound, supernatants were harvested and stored at 4° C. prior to assay.
# (§4) Each cell supernatant was assayed in quadruplicate. 20 uL of supernatant was used to measure NF-kappa-B (NFkB) and
# (§5) STING activity using reagents QuantiBlu and QuantiLuc respectively, according to the manufacturer's recommendations (Invivogen, San Diego, CA). Succinic acid was measured by using a kit from Megazyme Inc (Cambridge, MA). Control value of activity was set to 100 in each assay. […] PAM3C=25 ng/ml PAM3CSK4 (TLR1/2 inducer); Poly(I:C)=10 ug/ml (TLR3 inducer); PAM2C=25 ng/ml PAM2CSK4 (TLR2/6 inducer); KIN14=4 uM KIN-1400 (RIG-I inducer); cytB=1 uM cytosporone B (Nur77 inducer); C-178=1 uM STING inhibitor; NFkBi=50 ug/ml NFkB inhibitor peptide; SB2021=10 uM p38MAPK inhibitor; *p<0.05, **p<0.01 vs IM3 control; #p<0.01 vs “no inducer” control; SUCC=succinic acid; nd=not done; Peptide was added to cells at 400 nM.
# (§6) Peptides were added to cells at 400 nM. […]
# [5] = tested on: THP1-Dual monocytes; experiment: Succinic acid in THP1-Dual supernatant (x4A); type: cell-based; details: no peptide
# Method: as §3, §5, §6
# [6] = tested on: NF-kappa-B (NFkB); experiment: THP1-Dual monocyte reporter, NF-kappa-B readout (x4A); type: cell-based; details: no peptide
# Method: as §3, §4, §5, §6
# [7] = Competition binding assay to metal-charged NTA-coated plates (x2B b); details: PBS on calcium = 100
# Method: NTA-metal-affinity fluorescence assay was performed using 96-well NTA-metal-coated plates readily available from commercial sources such as Qiagen (Germantown, MD). NTA was charged with ferrous or ferric iron, zinc, copper, calcium, vanadium, ruthenium, cobalt, titanium, manganese or other metals. 400 ng of FITC-labeled immodulator peptide (or biotinylated immodulator peptide complexed to Alexa-488-labeled streptavidin) in PBS buffer was added per plate. After incubation at room temperature for 60 minutes, excess peptide was washed off and peptide was detected by measuring fluorescence (excitation 490 nm, emmission 525 nm) in a fluorometer. • (a) Using FITC-labeled IM3 peptide (1 ug/well) in the fluorescent binding assay: • EDTA-treated control: 2,251±1,186 • Ferrous iron: 170,441±11,264 (p<0.001)* • Copper: 13,644±5566 (p<0.05)* • Calcium: 48,822±11,990 (p<0.01)* • *p values are relative to EDTA-treated control • (b) Competition binding assay to ferrous iron, calcium, copper and zinc-charged NTA-coated plates using FITC-labeled IM3 peptide (0.5 uM) and 8× (4 uM) unlabelled competitor peptides IM3N1, IM3N2 (*all comparisons to PBS control are p<0.01); # fluorescent value of binding to […] was set at 100.
# [8] = tested on: A375 cells; experiment: A375 cell viability, CellTiterGlo (x10A); type: cell-based; details: 72 hours
# Method: as §2, with “have great” for “have”, “of cancer. A375” for “of cosmetics. HFF-1”, “(ATCC). They” for “(ATCC). Cells”, “compound,” for “compound, supernatants were collected for Collagen-1 ELISA assay and”
# Experiment x10A. Anti-cancer activity of immodulator peptides on A375 cells. A 96-well plate was seeded with 2,000 A375 cells per well in DMEM medium containing 10% FBS and PenStrep. After 24 hrs at 37 deg C., compounds and peptides were added (each treatment done in quadruplicate). After a further 72 hours incubation, 100 uL/well of CTG assay reagent purchased from Promega Inc. (Madison, WI) was added. Plate was read after 10 minutes, as recommended by the manufacturer. Peptides were added at 2 uM. The results of this experiment are shown below, expressed as percent survival ofA375 cells.
# [9] = 25 ng/ml PAM2CSK4 alone, IM3 + PAM2C = 100
# [10] = KIN1400 alone, IM3 + KIN1400 = 100
# [11] = 25 ng/ml PAM3CSK4 alone, control = 100
compound,measurement,setting,value
CC(C)[C@H](NC(=O)[C@H](Cc1ccccc1)NC(=O)[C@H](Cc1c[nH]c2ccccc12)NC(=O)[C@H](CS)NC(=O)[C@H](Cc1ccccc1)NC(=O)CNC(=O)[C@H](CCCNC(=N)N)NC(=O)[C@H](CCCCN)NC(=O)[C@H](CCCNC(=N)N)NC(=O)CNC(=O)[C@H](CCCCN)NC(=O)[C@H](CO)NC(=O)[C@@H]1CCCN1C(=O)[C@H](CCCNC(=N)N)NC(=O)[C@H](CS)NC(=O)[C@H](CCC(N)=O)NC(=O)[C@H](CCCCN)NC(=O)[C@H](CCCCN)NC(=O)[C@H](CCCCN)NC(=O)[C@H](Cc1ccc(O)cc1)NC(=O)[C@H](Cc1ccccc1)NC(=O)CNC(=O)[C@H](CCCCN)NC(=O)[C@@H](N)CCCCN)C(=O)N[C@@H](CO)C(=O)O [IM3FVS] (H-KKGFYKKKQCRPSKGRKRGFCWFVS-OH; N-terminus and C-terminus assumed),fluorescence of labeled peptide,[1],101.5±10.5
same,fluorescence (iron binding),[2],371±33
AFNSYELGSKKGFYKKKQCRPSKGRKRGFCW [IM3K9.1],COL1 immunoreactivity in supernatant,[3],156**
"KKGFYKKKQCRPSKGRKRGFCW(dA)VD (KKGFYKKKQCRPSKGRKRGFCW[dA]VD; cysteine pairing not given here) [IM3dAVD, IM3 extended C-terminally by (dA)VD]",fluorescence of labeled peptide,[1],147.4±22.9
same,fluorescence (iron binding),[2],418±28
PAM2CSK4 [reference compound],STING,[4]; [9],144.5**
same,SUCC,[5]; [9],121.5*
same,NFkB,[6]; [9],118.7**
TGPSESYLQLEELVKQVVSKGFYKKKQCRPSKGRKRGFCW [IM3N2],FITC-IM3 fluorescence with competitor,"[7]; Calcium, 0.5 uM FITC-IM3, 8x (4 uM) unlabelled competitor",12.9 ± 1.2*
same,FITC-IM3 fluorescence with competitor,"[7]; Copper, 8x (4 uM) unlabelled competitor",5.1 ± 1.0*
same,FITC-IM3 fluorescence with competitor,"[7]; Ferrous iron, 8x (4 uM) unlabelled competitor",25.2 ± 9.5*
same,FITC-IM3 fluorescence with competitor,"[7]; Zinc, 8x (4 uM) unlabelled competitor",13.4 ± 1.6*
AFNSYELGSKGFYKKKQCRPSKGRKRGFCW [IM3K9],COL1 immunoreactivity in supernatant,[3],155**
"(rg108)-KKGFYKKKQCRPSKGRKRGFCW (RG108-KKGFYKKKQCRPSKGRKRGFCW; cysteine pairing not given here) [IM3rg8, IM3 N-terminally conjugated with RG108]",percent survival of A375 cells,[8]; peptide 2 uM + Kin1400 4 uM (RIG-I agonist),105.8%
same,percent survival of A375 cells,"[8]; peptide 2 uM, Buffer",89.9** percent
"Oc1c(C(Nc2nc3ccccc3s2)c2ccc(OC(F)F)cc2)ccc2cccnc12 (centres unmarked) [KIN1400, KIN-1400, reference compound]",percent survival of A375 cells,"[8]; Kin1400 4 uM alone, no peptide",100.7%
same,STING,[4]; [10],84.3**
same,SUCC,[5]; [10],100.1
same,NFkB,"[6]; KIN1400 (RIG-I agonist) alone, IM3 + KIN1400 = 100",90.1
AFNSYELGSKGFYKKKQCRPSKGRKRGFCWAVDKY [IM3K9c],COL1 immunoreactivity in supernatant,[3],158**
PAM3CSK4 [reference compound],STING,[4]; [11],342 #
same,NFkB,[6]; [11],326 #
FNSYELGSLKKGFYKKKQCRPSKGRKRGFCW [IM3K8],COL1 immunoreactivity in supernatant,[3],98
